Assay results taken from publication PMC6443726, “The unfolded protein response modulators GSK2606414 and KIRA6 are potent KIT inhibitors” (Cell Death & Disease, 2019).

Target: T1, KIT (Homo sapiens, UniProt P10721)
T1 construct: recombinant cytoplasmic portion of KIT, wild type (ProQinase #0997-0000-1)
Assay: MicroScale Thermophoresis (MST)
Format: binding

T1 sequence (P10721 544-976 limits assumed): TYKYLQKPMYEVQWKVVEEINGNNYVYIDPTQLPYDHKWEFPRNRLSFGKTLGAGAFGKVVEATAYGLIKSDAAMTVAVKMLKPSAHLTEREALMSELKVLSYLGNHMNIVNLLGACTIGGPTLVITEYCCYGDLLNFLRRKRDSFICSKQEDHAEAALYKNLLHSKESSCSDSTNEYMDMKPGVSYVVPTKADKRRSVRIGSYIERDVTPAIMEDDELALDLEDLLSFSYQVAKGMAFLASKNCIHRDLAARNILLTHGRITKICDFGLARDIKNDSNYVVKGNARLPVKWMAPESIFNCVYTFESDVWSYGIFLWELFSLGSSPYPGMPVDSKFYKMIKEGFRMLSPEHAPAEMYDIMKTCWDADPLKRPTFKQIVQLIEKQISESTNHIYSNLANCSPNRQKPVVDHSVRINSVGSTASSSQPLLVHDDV

SMILES	Kd [µM]
Cn1cc(-c2ccc3c(c2)CCN3C(=O)Cc2cccc(C(F)(F)F)c2)c2c(N)ncnc21 [GSK414, 7-methyl-5-(1-{[3-(trifluoromethyl)phenyl]acetyl}-2,3-dihydro-1H-indol-5-yl)-7H-p yrrolo[2,3-d]pyrimidin-4-amine]	0.664 ± 0.294
CC(C)(C)c1nc(-c2ccc(NC(=O)Nc3cccc(C(F)(F)F)c3)c3ccccc23)c2c(N)nccn12 [KIRA6]	10.8 ± 2.9
